Like-named read-outs stand apart in the source and are kept apart here.
Assays:
Assay in all cases: NCI single dose screening (10 µM)
Format in all cases: cell-based
[1] = test system: HS 578 T; settings: Homo sapiens; HS 578 T, Breast cancer, single dose 10^−5 M; read-out: GI% (cell growth inhibition percentage)
[2] = test system: HOP-92; settings: Homo sapiens; HOP-92, Non-small cell lung cancer, single dose 10^−5 M; read-out: GI% (cell growth inhibition percentage)
[3] = test system: OVCAR-4; settings: Homo sapiens; OVCAR-4, Ovarian cancer, single dose 10^−5 M; read-out: GI% (cell growth inhibition percentage)
[4] = test system: OVCAR-3; settings: Homo sapiens; OVCAR-3, Ovarian cancer, single dose 10^−5 M; read-out: GI% (cell growth inhibition percentage)
[5] = test system: M14; settings: Homo sapiens; M14, Melanoma, single dose 10^−5 M; read-out: GI% (cell growth inhibition percentage)
[6] = test system: U251; settings: Homo sapiens, U-251; U251, CNS cancer, single dose 10^−5 M; read-out: GI% (cell growth inhibition percentage)
[7] = test system: EKVX; settings: Homo sapiens, Non-small cell lung cancer, single dose 10^−5 M, read-out: GI% (cell growth inhibition percentage)
[8] = test system: UO-31; settings: Homo sapiens; UO-31, Renal cancer, single dose 10^−5 M; read-out: GI% (cell growth inhibition percentage)
[9] = test system: HT-29; settings: Homo sapiens; HT-29, Colon cancer, single dose 10^−5 M; read-out: GI% (cell growth inhibition percentage)
[10] = test system: MDA-MB-435; settings: Homo sapiens; MDA-MB-435, Melanoma, single dose 10^−5 M; read-out: GI% (cell growth inhibition percentage)
[11] = test system: SN12C; settings: Homo sapiens, Renal cancer, single dose 10^−5 M, read-out: GI% (cell growth inhibition percentage)
[12] = test system: COLO 205; settings: Homo sapiens; COLO 205, Colon cancer, single dose 10^−5 M; read-out: GI% (cell growth inhibition percentage)
[13] = test system: K-562; settings: Homo sapiens, K562; K-562, Leukaemia, single dose 10^−5 M; read-out: GI% (cell growth inhibition percentage)
[14] = test system: ACHN; settings: Homo sapiens, Renal cancer, single dose 10^−5 M, read-out: GI% (cell growth inhibition percentage)
[15] = test system: SF-268; settings: Homo sapiens; SF-268, CNS cancer, single dose 10^−5 M; read-out: GI% (cell growth inhibition percentage)
[16] = test system: T-47D; settings: Homo sapiens, T47D; T-47D, Breast cancer, single dose 10^−5 M; read-out: GI% (cell growth inhibition percentage)
[17] = test system: MDA-MB-231/ATCC; settings: Homo sapiens; MDA-MB-231/ATCC, Breast cancer, single dose 10^−5 M; read-out: GI% (cell growth inhibition percentage)
[18] = test system: OVCAR-5; settings: Homo sapiens; OVCAR-5, Ovarian cancer, single dose 10^−5 M; read-out: GI% (cell growth inhibition percentage)
[19] = test system: MOLT-4; settings: Homo sapiens; MOLT-4, Leukaemia, single dose 10^−5 M; read-out: GI% (cell growth inhibition percentage)
[20] = test system: HL-60(TB); settings: Homo sapiens
[21] = test system: MDA-MB-468; settings: Homo sapiens; MDA-MB-468, Breast cancer, single dose 10^−5 M; read-out: GI% (cell growth inhibition percentage)
[22] = test system: SR; settings: Homo sapiens, Leukaemia, single dose 10^−5 M, read-out: GI% (cell growth inhibition percentage)
[23] = test system: SF-539; settings: Homo sapiens; SF-539, CNS cancer, single dose 10^−5 M; read-out: GI% (cell growth inhibition percentage)
[24] = test system: SW-620; settings: Homo sapiens; SW-620, Colon cancer, single dose 10^−5 M; read-out: GI% (cell growth inhibition percentage)
[25] = test system: IGROV1; settings: Homo sapiens, IGROV-1; IGROV1, Ovarian cancer, single dose 10^−5 M; read-out: GI% (cell growth inhibition percentage)
[26] = test system: HCC-2998; settings: Homo sapiens; HCC-2998, Colon cancer, single dose 10^−5 M; read-out: GI% (cell growth inhibition percentage)
[27] = test system: SF-295; settings: Homo sapiens; SF-295, CNS cancer, single dose 10^−5 M; read-out: GI% (cell growth inhibition percentage)
[28] = test system: BT-549; settings: Homo sapiens; BT-549, Breast cancer, single dose 10^−5 M; read-out: GI% (cell growth inhibition percentage)
[29] = test system: SK-MEL-28; settings: Homo sapiens; SK-MEL-28, Melanoma, single dose 10^−5 M; read-out: GI% (cell growth inhibition percentage)
[30] = test system: CAKI-1; settings: Homo sapiens; CAKI-1, Renal cancer, single dose 10^−5 M; read-out: GI% (cell growth inhibition percentage)
[31] = test system: MALME-3M; settings: Homo sapiens; MALME-3M, Melanoma, single dose 10^−5 M; read-out: GI% (cell growth inhibition percentage)
[32] = test system: DU-145; settings: Homo sapiens; DU-145, Prostate cancer, single dose 10^−5 M; read-out: GI% (cell growth inhibition percentage)
[33] = HL-60(TB), Leukaemia, single dose 10^−5 M, read-out: GI% (cell growth inhibition percentage)

| Structure (SMILES) | inhibition at 10 µM [1] [%] | inhibition at 10 µM [2] [%] | inhibition at 10 µM [3] [%] | inhibition at 10 µM [4] [%] | inhibition at 10 µM [5] [%] | inhibition at 10 µM [6] [%] | inhibition at 10 µM [7] [%] | inhibition at 10 µM [8] [%] | inhibition at 10 µM [9] [%] | inhibition at 10 µM [10] [%] | inhibition at 10 µM [11] [%] | inhibition at 10 µM [12] [%] | inhibition at 10 µM [13] [%] | inhibition at 10 µM [14] [%] | inhibition at 10 µM [15] [%] | inhibition at 10 µM [16] [%] | inhibition at 10 µM [17] [%] | inhibition at 10 µM [18] [%] | inhibition at 10 µM [19] [%] | inhibition at 10 µM [21] [%] | other results |
| --- | --- | --- | --- | --- | --- | --- | --- | --- | --- | --- | --- | --- | --- | --- | --- | --- | --- | --- | --- | --- | --- |
| Cc1c(C(=O)N/N=C2\C(=O)Nc3ccc(F)cc32)oc2ccccc12 [Compound 5b] | < 10 | < 10 | < 10 | < 10 | < 10 | < 10 | 29.6 | 26.7 | < 10 | < 10 | < 10 | < 10 | < 10 | < 10 | < 10 | < 10 | 14.6 | < 10 | < 10 | < 10 | inhibition at 10 µM [20, 33]: < 10%; inhibition at 10 µM [22]: < 10%; inhibition at 10 µM [23]: < 10%; inhibition at 10 µM [24]: < 10%; inhibition at 10 µM [25]: 33.7%; inhibition at 10 µM [26]: < 10%; inhibition at 10 µM [27]: < 10%; inhibition at 10 µM [28]: < 10%; inhibition at 10 µM [29]: < 10%; inhibition at 10 µM [30]: 19.5%; inhibition at 10 µM [31]: 12.4%; inhibition at 10 µM [32]: < 10% |
| Cc1c(C(=O)N/N=C2\C(=O)Nc3ccc(Br)cc32)oc2ccccc12 [Compound 5c] | 46.3 | 26.5 | 31 | < 10 | 25.4 | 42.6 | 32.1 | 43.4 | < 10 | < 10 | 29.8 | < 10 | 18 | 35.5 | 11.7 | 42.7 | 29.9 | < 10 | < 10 | < 10 | inhibition at 10 µM [20, 33]: 21.5%; inhibition at 10 µM [22]: 17.6%; inhibition at 10 µM [23]: 57.9%; inhibition at 10 µM [24]: 10.6%; inhibition at 10 µM [25]: 44.6%; inhibition at 10 µM [26]: < 10%; inhibition at 10 µM [27]: 20.3%; inhibition at 10 µM [28]: 22.1%; inhibition at 10 µM [29]: < 10%; inhibition at 10 µM [30]: 26.6%; inhibition at 10 µM [31]: 64.9%; inhibition at 10 µM [32]: 17% |
| COc1ccc2c(c1)/C(=N/NC(=O)c1oc3ccccc3c1C)C(=O)N2 [Compound 5d] | 74.5 | 144 | 153 | 166 | 71.3 | 98 | 62.7 | 155 | 72.7 | 61 | 65.1 | 77.2 | 57.5 | 151 | 42.3 | 139 | 76.2 | 52.3 | 49.1 | 80.1 | inhibition at 10 µM ([20]; HL-60, read-out: GI% (cell growth inhibition percentage)): 46.1%; inhibition at 10 µM [22]: 56.5%; inhibition at 10 µM [23]: 62.6%; inhibition at 10 µM [24]: 64.8%; inhibition at 10 µM [25]: 93.7%; inhibition at 10 µM [26]: 56.5%; inhibition at 10 µM [27]: 95%; inhibition at 10 µM [28]: 29.9%; inhibition at 10 µM [29]: 84.2%; inhibition at 10 µM [30]: 152%; inhibition at 10 µM [31]: 129%; inhibition at 10 µM [32]: 82.4% |
